According to US7371571B2, “Recombinant mycobacteria overexpressing D-alanine ligase gene and uses therefore” (priority 2002, dated 2008):
≈ marks a conversion by molar mass, not a printed value. Where “and” joins values, the source holds several entries; their conditions need not be identical. Equal values may be shown once. Entries after “also recorded” stand apart in the source; their conditions may differ. Read-outs that look alike come from different tables or passages of the source.

What was measured:
[1] = test system: M. smegmatis GPM259 (overproducing Ddl); test: MIC by microdilution method; type: cell-based, Mycobacterium smegmatis; details: for MIC: Mycolicibacterium smegmatis, 48 h
Procedure: (§1) MICs were determined by a microdilution method described previously (Takiff et al., 1996) with minor modifications. Briefly, M. smegmatis cells were grown in M-ADC-TW to mid-exponential phase (optical density at 600 nm, 0.6 to 1.0). Approximately 10^5 CFU in 0.1 ml were inoculated in triplicate onto 96-well microplates containing serial twofold dilutions of inhibitory compounds. Plates were incubated at 37° C. and examined daily. The MIC was defined as the minimal concentration of the drug or inhibitor that prevented visible bacterial growth after 48 h. Each MIC represents the consistent result from at least three independent cultures. Amikacin, DCS, βCDA, ethambutol, and vancomycin (all from Sigma) were prepared in sterile deionized water. Rifabutin (Amersham Pharmacia) was prepared in dimethyl sulfoxide (Fisher Scientific, St. Louis, Mo.). All further dilutions of each antibiotic were prepared in growth medium. Inhibition of colony formation by DCS was evaluated as described previously in Caceres et al., (1997), which is incorporated herein by reference. Appropriate dilutions of exponentially growing M. smegmatis cells were plated onto agar containing 0 to 1,200 μg of DCS ml^−1. Colonies were counted after 5 days of incubation at 37° C. Statistical analysis was conducted using the SAS general linear model procedure (SAS Institute, Cary, N.C.).

[2] = test system: M. smegmatis GPM260 (overproducing both Alr and Ddl); test: MIC by microdilution method; type: cell-based, Mycobacterium smegmatis; details: for MIC: Mycolicibacterium smegmatis, M-ADC-TW, 48 h; for MIC / susceptibility of GPM260 compared with parent strain GPM14: strain GPM260
Procedure: as §1

[3] = test system: M. smegmatis GPM14 (overproducing Alr); test: MIC by microdilution method; type: cell-based, Mycobacterium smegmatis; details: for MIC: Mycolicibacterium smegmatis, 48 h
Procedure: as §1

[4] = test system: M. smegmatis GPM260; test: Intracellular alanine pools by reverse-phase HPLC; details: 75 μg ml^−1 DCS, 2 h
Procedure: (§2) M. smegmatis cells were grown in minimal medium until exponential phase and split into two subcultures, and DCS was added to a final concentration of 75 μg ml^−1 to one of the subcultures. After 2 h of incubation, cells were harvested at 4° C. by centrifugation, washed twice with ice-cold double-distilled water, and concentrated 50-fold. Cells were sonicated in a salt-ice-water bath with a Vibra-Cell model VC600 sonicator (Sonic and Materials, Inc., Danbury, Conn.) for 10 min at 80% power output and 50% duty cycle. The lysate was centrifuged at 4° C. for 30 min at 30,000×g to remove bacterial debris. Protein was removed from the supernatant by serial passages through YM-10 and YM-3 Centricon concentrators (Millipore Corp., Bedford, Mass.). Determination of the abundance of individual amino acids was performed at the Amino Acid Geochronology Laboratory of Northern Arizona University (Flagstaff, Ariz.) by a reverse-phase high-performance liquid chromatography (HPLC) procedure described previously (Kaufman and Manley, 1998). This procedure is able to detect nine pairs of L- and D-amino acids in the subpicomole range. […] Thus, the abundance of each amino acid was calculated as the area under the corresponding peak and expressed relative to this pool.

[5] = test system: M. smegmatis mc^2155; test: MIC by microdilution method; type: cell-based, Mycobacterium smegmatis
[6] = target: M. smegmatis Ddl (Mycolicibacterium smegmatis, UniProt Q9ZGN0); type: biochemical, Mycobacterium smegmatis
M. smegmatis Ddl, sequence (Q9ZGN0 whole entry): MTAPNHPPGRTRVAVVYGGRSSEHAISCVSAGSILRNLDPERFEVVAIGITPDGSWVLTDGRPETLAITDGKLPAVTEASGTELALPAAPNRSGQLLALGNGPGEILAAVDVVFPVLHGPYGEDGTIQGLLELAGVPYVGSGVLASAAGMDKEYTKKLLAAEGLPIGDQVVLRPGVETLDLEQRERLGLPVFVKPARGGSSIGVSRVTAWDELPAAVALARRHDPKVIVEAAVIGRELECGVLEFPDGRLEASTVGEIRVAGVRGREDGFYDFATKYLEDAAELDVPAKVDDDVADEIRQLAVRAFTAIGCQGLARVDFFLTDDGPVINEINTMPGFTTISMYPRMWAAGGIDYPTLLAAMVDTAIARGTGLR

[7] = test system: M. smegmatis mc^2155; test: Intracellular alanine pools by reverse-phase HPLC; details: 75 μg ml^−1 DCS, 2 h
Procedure: as §2

[8] = test system: M. smegmatis strains; test: Inhibition of colony formation on agar; type: cell-based, Mycobacterium smegmatis; details: agar with 0 to 1,200 μg of DCS ml^−1, 5 days
Procedure: as §1

[9] = test system: M. smegmatis GPM14; test: Intracellular alanine pools by reverse-phase HPLC; details: 75 μg ml^−1 DCS, 2 h
Procedure: as §2

[10] = test system: M. smegmatis GPM2; test: MIC by microdilution method; type: cell-based, Mycobacterium smegmatis; details: Mycolicibacterium smegmatis
[11] = test system: M. smegmatis GPM265 (overproducing M. tuberculosis Ddl); test: microbe, parasite or virus in culture; type: cell-based, Mycobacterium smegmatis; details: for MIC: Mycolicibacterium smegmatis, 48 h
[12] = target: T1, Ddl (UniProt Q47758); details: Streptococcus faecalis purified Ddl; cited from earlier work
T1 sequence (Q47758 1-348): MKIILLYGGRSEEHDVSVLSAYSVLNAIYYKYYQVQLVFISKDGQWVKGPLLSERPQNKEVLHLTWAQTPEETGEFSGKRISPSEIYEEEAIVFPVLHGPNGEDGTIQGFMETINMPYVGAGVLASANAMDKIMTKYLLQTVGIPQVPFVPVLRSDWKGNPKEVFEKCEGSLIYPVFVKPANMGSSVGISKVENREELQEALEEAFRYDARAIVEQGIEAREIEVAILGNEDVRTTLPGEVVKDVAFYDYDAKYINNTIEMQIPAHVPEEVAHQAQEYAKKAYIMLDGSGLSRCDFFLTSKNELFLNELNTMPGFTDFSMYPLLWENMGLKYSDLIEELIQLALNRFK

[13] = target: Alr; details: Streptococcus faecalis purified Alr; cited from earlier work
[14] = test system: M. smegmatis GPM259; test: Intracellular alanine pools by reverse-phase HPLC; details: 75 μg ml^−1 DCS, 2 h
Procedure: as §2

[15] = target: T2, M. tuberculosis Ddl (Mycobacterium tuberculosis, UniProt P9WP31); type: biochemical
T2 sequence (P9WP31 1-373): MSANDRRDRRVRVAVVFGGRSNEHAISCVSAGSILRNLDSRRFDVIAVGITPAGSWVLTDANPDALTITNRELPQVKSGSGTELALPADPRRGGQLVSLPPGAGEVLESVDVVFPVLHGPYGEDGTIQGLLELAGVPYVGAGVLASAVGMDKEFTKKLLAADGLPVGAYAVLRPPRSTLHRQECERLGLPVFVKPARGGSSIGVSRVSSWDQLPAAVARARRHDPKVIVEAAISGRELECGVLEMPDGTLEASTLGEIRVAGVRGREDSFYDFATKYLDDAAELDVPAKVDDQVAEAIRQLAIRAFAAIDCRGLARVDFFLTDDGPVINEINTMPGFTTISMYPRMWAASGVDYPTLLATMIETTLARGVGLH

[16] = test system: M. smegmatis strains; test: Drug susceptibility compared across strains; type: cell-based, Mycobacterium smegmatis; details: mc^2155, GPM259, GPM265, GPM14

**Q.** Which MIC [1] does the source give for `NC1CONC1=O` (stereo not drawn) [DCS, 4-amino-3-isoxazolidinone] here?
**A.** The MIC was 150 µg/mL (≈ 1470 µM).

**Q.** What about the “MIC relative to that for mc^2155” value ([1]; strain GPM259) of the same compound?
**A.** The value was “twofold greater”.

**Q.** And the MIC [2]?
**A.** The MIC was 600 µg/mL (≈ 5880 µM).

**Q.** And the level of resistance ([2]; strain overexpressing both the alr and ddl genes)?
**A.** The level of resistance was “eightfold-higher”.

**Q.** And the MIC [3]?
**A.** The MIC was 300 µg/mL (≈ 2940 µM).

**Q.** And the “excess of L-alanine” value [4]?
**A.** The value was 18- to 20 fold and ~20 fold.

**Q.** And the MIC ([5]; Mycolicibacterium smegmatis, strain mc^2155, M-ADC-TW, 48 h, read-out: MIC)?
**A.** The MIC was 75 µg/mL (≈ 735 µM).

**Q.** What about the MIC ([5]; strain mc^2155, M-ADC-TW, 48 h) of the same compound?
**A.** Its MIC is 75.0 µg/mL (≈ 735 µM).

**Q.** And the Ddl activity inhibited [6]?
**A.** The Ddl activity inhibited was 10 to 15%.

**Q.** What about the “Ddl enzyme activity inhibited” value [6] of the same compound?
**A.** Its value is “Approximately 50%”.

**Q.** And the “inhibition of Ddl enzyme” value [6]?
**A.** Its value is “inhibited by DCS in a concentration-dependent manner”.

**Q.** And the “excess of L- over D-alanine” value [7]?
**A.** Its value is “eightfold”.

**Q.** What about the “increase of L-alanine-to-D-alanine molar ratio” value ([7]; versus untreated) of the same compound?
**A.** The value was 3.5 fold.

**Q.** And the “resistance of GPM259 and GPM265 on solid agar” value [8]?
**A.** The value was “more resistant to DCS than the wild-type mc^2155 but less resistant than the Alr-overproducing strain GPM14”.

**Q.** What about the “excess of L- over D-alanine” value [9] of the same compound?
**A.** The value was “three-fold”.

**Q.** What about the MIC ([10]; strain GPM2, M-ADC-TW, 48 h, read-out: MIC) of the same compound?
**A.** Its MIC is 75 µg/mL (≈ 735 µM).

**Q.** What about the “MIC relative to that for mc^2155” value [11] of the same compound?
**A.** Its value is “twofold greater”.

**Q.** And the MIC [11]?
**A.** The MIC was 150 µg/mL (≈ 1470 µM).

**Q.** And the Ki [12]?
**A.** The Ki was 900 µM.

**Q.** And the Ki [13]?
**A.** Its Ki is 20 µM.

**Q.** And the “excess of L-alanine” value [14]?
**A.** Its value is 18- to 20 fold and ~20 fold.

**Q.** What about the “inhibition of Ddl enzyme” value [15] of the same compound?
**A.** The value was “inhibited by DCS in a concentration-dependent manner”.

**Q.** What about the “percentage of inhibition higher than in mc^2155 and GPM259 extracts” value [15] of the same compound?
**A.** The value was “approximately 10%”.

**Q.** With `NCC[C@H](O)C(=O)N[C@@H]1C[C@H](N)[C@@H](O[C@H]2O[C@H](CN)[C@@H](O)[C@H](O)[C@H]2O)[C@H](O)[C@H]1O[C@H]1O[C@H](CO)[C@@H](O)[C@H](N)[C@H]1O` [amikacin] as the compound, how does the “susceptibilities of strains overproducing Alr and/or Ddl compared with wild type” value (from here on “susceptibilities … compared with wild type”) [16] read?
**A.** The value was “identical”.

**Q.** And the “susceptibility of GPM260 compared with parent strain GPM14” value [2]?
**A.** The value was “identical”.

**Q.** With `CC[C@@H](CO)NCCN[C@@H](CC)CO` [ethambutol] as the compound, how does the “susceptibilities … compared with wild type” value [16] read?
**A.** The value was “identical”.

**Q.** And the “susceptibility of GPM260 compared with parent strain GPM14” value [2]?
**A.** Its value is “identical”.

**Q.** With `CO[C@H]1/C=C/O[C@@]2(C)Oc3c(C)c(O)c4c(c3C2=O)C2=NC3(CCN(CC(C)C)CC3)NC2=C(NC(=O)/C(C)=C\C=C\[C@H](C)[C@H](O)[C@@H](C)[C@@H](O)[C@@H](C)[C@H](OC(C)=O)[C@@H]1C)C4=O` [rifabutin] as the compound, how does the “susceptibilities … compared with wild type” value [16] read?
**A.** Its value is “identical”.

**Q.** And the “susceptibility of GPM260 compared with parent strain GPM14” value [2]?
**A.** Its value is “identical”.

**Q.** Which results are given for `CN[C@H](CC(C)C)C(=O)N[C@H]1C(=O)N[C@@H](CC(N)=O)C(=O)N[C@H]2C(=O)N[C@H]3C(=O)N[C@H](C(=O)N[C@H](C(=O)O)c4cc(O)cc(O)c4-c4cc3ccc4O)[C@H](O)c3ccc(c(Cl)c3)Oc3cc2cc(c3O[C@@H]2O[C@H](CO)[C@@H](O)[C@H](O)[C@H]2O[C@H]2C[C@](C)(N)[C@H](O)[C@H](C)O2)Oc2ccc(cc2Cl)[C@H]1O` [vancomycin]?
**A.** susceptibilities of strains overproducing Alr and/or Ddl compared with wild type [16]: does not have an effect on the susceptibility; also recorded: identical; susceptibility of GPM260 compared with parent strain GPM14 [2]: identical

**Q.** For `N[C@H](CCl)C(=O)O` [βCDA, β-chloro-D-alanine], which MIC ([1]; strain GPM259, M-ADC-TW, read-out: MIC) is on record?
**A.** Its MIC is 25 µg/mL (≈ 202 µM).

**Q.** And the MIC [2]?
**A.** The MIC was 100 µg/mL (≈ 809 µM).

**Q.** What about the “susceptibility of GPM260 compared with parent strain GPM14” value [2] of the same compound?
**A.** Its value is “identical”.

**Q.** What about the MIC [3] of the same compound?
**A.** The MIC was 100 µg/mL (≈ 809 µM).

**Q.** What about the “MIC relative to those for strains with wild-type levels of Alr” value ([3]; strain GPM14) of the same compound?
**A.** Its value is “fourfold higher”.

**Q.** And the MIC ([5]; Mycolicibacterium smegmatis, MC^2155, 48 h)?
**A.** Its MIC is 25 µg/mL (≈ 202 µM).

**Q.** And the MIC ([10]; GPM2, 48 h)?
**A.** Its MIC is 25 µg/mL (≈ 202 µM).

**Q.** And the MIC [11]?
**A.** The MIC was 25 µg/mL (≈ 202 µM).
